This note sets out measurements from ChEMBL document CHEMBL5291721, “A preclinical secondary pharmacology resource illuminates target-adverse drug reaction associations of marketed drugs” (Nat Commun, 2023).

Among the targets are Cannabinoid receptor 1 (Homo sapiens, UniProt P21554); Vasopressin V1a receptor (Homo sapiens, UniProt P37288); Histamine H3 receptor (Homo sapiens, UniProt Q9Y5N1); Mu-type opioid receptor (Homo sapiens, UniProt P35372); Melanocortin receptor 4 (Homo sapiens, UniProt P32245).
Assay [1] addresses Muscarinic acetylcholine receptor M3 (Homo sapiens, UniProt P20309).
The target in another assay is T1, Androgen receptor (Rattus norvegicus, UniProt P15207).
T1 sequence (P15207 whole entry): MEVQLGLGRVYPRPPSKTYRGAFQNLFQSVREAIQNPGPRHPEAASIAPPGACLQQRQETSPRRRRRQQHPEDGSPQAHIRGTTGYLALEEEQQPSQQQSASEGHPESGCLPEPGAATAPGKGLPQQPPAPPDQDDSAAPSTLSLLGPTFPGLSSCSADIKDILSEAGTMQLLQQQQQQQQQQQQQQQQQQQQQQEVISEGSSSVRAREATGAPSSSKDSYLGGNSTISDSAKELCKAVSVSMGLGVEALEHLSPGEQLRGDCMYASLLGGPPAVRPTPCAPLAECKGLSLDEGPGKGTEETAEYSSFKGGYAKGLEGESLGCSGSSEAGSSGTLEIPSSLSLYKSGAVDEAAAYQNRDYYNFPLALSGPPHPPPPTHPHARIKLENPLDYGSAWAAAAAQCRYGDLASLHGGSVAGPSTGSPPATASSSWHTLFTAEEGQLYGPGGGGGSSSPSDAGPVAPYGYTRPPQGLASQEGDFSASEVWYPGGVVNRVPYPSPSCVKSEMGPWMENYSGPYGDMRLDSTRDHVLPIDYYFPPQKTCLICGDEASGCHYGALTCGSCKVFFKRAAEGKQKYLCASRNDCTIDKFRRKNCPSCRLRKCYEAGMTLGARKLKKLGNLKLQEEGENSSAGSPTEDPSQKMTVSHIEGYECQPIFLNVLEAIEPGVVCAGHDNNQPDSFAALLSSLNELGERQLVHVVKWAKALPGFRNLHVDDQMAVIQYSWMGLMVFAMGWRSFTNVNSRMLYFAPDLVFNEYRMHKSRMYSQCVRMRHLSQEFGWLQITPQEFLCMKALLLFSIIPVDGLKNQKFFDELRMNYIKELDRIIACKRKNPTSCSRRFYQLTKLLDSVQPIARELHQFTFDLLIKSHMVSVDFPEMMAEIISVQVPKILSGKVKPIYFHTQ
It is filed as functional.

The target of assay [2] is 5-hydroxytryptamine receptor 2A (Homo sapiens, UniProt P28223). It is filed as functional, cell-based.
Chain of 5-hydroxytryptamine receptor 2A (P28223 whole entry): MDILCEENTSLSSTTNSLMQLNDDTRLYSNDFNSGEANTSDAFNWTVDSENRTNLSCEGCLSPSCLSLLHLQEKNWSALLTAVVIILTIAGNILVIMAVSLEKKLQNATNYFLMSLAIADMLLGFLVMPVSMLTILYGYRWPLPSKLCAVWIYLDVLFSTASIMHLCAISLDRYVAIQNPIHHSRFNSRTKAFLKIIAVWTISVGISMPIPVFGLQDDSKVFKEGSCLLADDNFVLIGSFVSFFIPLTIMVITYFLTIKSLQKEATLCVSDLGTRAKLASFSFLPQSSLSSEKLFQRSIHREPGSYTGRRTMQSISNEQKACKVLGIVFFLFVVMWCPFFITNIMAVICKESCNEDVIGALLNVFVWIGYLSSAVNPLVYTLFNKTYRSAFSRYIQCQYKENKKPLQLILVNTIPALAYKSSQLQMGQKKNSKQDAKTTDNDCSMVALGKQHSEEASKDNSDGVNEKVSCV
Assay [3] concerns the target T2, Beta-2 adrenergic receptor (Homo sapiens, UniProt P07550).
The target of assay [4] is T3, Muscarinic acetylcholine receptor M1 (Homo sapiens, UniProt P11229).
T3 sequence (P11229 whole entry): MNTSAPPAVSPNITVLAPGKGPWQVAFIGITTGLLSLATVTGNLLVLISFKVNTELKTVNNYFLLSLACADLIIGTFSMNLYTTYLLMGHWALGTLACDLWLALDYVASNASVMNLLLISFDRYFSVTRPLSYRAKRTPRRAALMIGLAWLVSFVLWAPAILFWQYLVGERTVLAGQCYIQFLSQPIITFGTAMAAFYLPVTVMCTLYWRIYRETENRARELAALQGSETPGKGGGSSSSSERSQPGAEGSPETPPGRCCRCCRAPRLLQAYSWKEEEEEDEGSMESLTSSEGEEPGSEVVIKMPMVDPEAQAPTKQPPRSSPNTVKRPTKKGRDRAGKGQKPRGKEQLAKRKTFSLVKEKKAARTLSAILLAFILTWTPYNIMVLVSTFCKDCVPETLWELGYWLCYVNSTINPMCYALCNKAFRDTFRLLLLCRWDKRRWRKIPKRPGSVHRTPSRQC
The assay is classed as functional.

In assay [5] the target is T4, Gastrin/cholecystokinin type B receptor (Homo sapiens, UniProt P32239).
T4 sequence (P32239 whole entry): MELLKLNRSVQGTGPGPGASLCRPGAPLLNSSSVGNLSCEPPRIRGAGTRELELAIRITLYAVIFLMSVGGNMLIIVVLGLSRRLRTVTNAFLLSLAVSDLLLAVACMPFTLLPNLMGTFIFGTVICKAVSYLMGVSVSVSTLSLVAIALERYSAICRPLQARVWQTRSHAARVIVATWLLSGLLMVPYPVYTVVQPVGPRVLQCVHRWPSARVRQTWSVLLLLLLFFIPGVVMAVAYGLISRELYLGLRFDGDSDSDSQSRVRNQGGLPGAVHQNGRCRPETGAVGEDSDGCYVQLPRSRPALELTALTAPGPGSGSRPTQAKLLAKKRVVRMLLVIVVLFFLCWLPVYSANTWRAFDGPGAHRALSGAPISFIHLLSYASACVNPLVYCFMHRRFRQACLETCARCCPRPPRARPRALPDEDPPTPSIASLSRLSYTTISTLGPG

Assay [6] has as its target Sodium-dependent serotonin transporter (Homo sapiens, UniProt P31645).
Assay [7] addresses T5, Alpha-2B adrenergic receptor (Homo sapiens, UniProt P18089).
T5 sequence (P18089 whole entry): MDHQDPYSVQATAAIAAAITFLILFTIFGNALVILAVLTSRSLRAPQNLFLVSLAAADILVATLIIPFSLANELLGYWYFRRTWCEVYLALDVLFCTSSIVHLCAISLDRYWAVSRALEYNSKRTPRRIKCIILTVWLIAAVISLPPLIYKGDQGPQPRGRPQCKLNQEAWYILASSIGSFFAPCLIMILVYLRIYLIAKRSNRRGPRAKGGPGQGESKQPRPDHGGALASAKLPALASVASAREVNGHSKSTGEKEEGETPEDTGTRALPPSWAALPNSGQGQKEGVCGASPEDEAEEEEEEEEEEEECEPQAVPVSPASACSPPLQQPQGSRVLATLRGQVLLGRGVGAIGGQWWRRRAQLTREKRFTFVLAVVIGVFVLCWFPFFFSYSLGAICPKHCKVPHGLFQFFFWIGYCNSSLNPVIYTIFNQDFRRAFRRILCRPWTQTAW

Assay [8] concerns the target Gamma-aminobutyric acid receptor subunit alpha-1/alpha-2/beta-2/gamma-2 (Homo sapiens, UniProt P14867+P18507+P47869+P47870). The assay is classed as functional, cell-based.
Assay [9] has as its target T2, Beta-2 adrenergic receptor. It is filed as functional, cell-based.
Further: assay procedure not described here.

Chain of Muscarinic acetylcholine receptor M3 (P20309 whole entry): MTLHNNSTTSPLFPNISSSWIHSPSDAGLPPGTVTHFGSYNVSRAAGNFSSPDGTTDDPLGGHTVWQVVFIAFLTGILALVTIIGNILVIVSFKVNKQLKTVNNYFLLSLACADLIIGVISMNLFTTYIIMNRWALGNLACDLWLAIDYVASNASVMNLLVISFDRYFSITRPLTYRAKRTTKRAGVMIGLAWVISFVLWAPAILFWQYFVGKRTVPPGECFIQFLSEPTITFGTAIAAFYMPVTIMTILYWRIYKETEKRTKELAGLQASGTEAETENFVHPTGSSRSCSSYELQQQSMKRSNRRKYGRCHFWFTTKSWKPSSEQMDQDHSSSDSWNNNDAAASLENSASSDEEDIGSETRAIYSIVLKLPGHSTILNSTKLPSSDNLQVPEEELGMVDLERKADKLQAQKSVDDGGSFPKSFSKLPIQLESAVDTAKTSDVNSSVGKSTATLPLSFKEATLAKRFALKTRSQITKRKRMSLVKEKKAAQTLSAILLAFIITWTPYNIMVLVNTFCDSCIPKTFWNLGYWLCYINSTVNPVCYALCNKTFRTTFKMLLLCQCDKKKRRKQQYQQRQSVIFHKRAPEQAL
Chain of Melanocortin receptor 4 (P32245 whole entry): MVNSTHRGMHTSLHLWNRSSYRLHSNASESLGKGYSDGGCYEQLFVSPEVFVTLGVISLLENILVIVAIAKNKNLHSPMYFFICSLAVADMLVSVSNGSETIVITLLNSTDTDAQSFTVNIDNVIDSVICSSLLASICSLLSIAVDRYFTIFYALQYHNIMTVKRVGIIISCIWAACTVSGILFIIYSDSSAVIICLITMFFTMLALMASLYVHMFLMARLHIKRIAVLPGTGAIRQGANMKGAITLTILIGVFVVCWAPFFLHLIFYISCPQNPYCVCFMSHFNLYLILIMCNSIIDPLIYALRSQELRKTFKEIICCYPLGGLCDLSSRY
Chain of Cannabinoid receptor 1 (P21554 whole entry): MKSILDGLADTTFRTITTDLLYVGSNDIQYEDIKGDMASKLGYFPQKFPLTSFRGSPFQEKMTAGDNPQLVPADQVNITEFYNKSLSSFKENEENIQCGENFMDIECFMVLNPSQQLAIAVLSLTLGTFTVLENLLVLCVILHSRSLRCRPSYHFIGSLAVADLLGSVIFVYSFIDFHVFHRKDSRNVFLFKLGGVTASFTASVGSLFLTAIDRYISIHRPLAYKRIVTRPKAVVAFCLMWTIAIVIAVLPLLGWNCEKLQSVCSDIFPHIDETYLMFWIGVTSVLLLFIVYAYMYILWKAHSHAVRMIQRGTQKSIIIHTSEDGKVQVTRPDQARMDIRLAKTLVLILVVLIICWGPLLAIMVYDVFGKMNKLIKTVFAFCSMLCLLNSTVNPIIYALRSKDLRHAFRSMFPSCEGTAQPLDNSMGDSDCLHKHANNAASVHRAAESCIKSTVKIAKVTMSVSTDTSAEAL
Chain of Vasopressin V1a receptor (P37288 whole entry): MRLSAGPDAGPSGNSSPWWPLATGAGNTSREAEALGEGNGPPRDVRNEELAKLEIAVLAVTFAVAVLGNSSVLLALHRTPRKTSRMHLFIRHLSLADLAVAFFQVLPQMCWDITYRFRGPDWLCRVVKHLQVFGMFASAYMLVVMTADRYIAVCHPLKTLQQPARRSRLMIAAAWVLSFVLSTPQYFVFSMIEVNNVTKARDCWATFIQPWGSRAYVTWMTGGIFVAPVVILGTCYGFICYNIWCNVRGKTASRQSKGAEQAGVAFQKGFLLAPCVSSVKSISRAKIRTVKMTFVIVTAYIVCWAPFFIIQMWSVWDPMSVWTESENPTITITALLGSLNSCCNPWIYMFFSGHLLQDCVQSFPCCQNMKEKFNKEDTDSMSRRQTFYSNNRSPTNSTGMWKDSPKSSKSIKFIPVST
T2 sequence (P07550 whole entry): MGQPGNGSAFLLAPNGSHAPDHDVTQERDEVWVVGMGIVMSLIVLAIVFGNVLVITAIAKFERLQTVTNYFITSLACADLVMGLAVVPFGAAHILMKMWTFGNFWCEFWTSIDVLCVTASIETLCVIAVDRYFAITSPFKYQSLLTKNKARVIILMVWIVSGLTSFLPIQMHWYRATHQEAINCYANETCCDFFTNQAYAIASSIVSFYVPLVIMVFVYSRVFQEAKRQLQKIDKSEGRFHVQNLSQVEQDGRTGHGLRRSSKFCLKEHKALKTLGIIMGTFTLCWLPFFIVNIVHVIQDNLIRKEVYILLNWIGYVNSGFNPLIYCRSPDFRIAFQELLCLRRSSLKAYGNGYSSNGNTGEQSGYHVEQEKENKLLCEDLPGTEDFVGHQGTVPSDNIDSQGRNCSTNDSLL
Chain of Histamine H3 receptor (Q9Y5N1 whole entry): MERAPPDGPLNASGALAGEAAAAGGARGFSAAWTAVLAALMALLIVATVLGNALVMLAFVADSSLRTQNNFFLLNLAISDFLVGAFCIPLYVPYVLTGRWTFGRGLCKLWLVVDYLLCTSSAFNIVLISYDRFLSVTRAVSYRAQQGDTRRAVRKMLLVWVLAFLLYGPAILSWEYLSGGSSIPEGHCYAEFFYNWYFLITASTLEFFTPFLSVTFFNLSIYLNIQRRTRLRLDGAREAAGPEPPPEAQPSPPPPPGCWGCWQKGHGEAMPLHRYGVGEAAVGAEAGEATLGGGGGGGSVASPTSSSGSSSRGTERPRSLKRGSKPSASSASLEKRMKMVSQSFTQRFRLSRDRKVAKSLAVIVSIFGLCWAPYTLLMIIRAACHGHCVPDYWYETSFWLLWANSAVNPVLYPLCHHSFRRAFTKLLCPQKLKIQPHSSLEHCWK
Chain of Sodium-dependent serotonin transporter (P31645 whole entry): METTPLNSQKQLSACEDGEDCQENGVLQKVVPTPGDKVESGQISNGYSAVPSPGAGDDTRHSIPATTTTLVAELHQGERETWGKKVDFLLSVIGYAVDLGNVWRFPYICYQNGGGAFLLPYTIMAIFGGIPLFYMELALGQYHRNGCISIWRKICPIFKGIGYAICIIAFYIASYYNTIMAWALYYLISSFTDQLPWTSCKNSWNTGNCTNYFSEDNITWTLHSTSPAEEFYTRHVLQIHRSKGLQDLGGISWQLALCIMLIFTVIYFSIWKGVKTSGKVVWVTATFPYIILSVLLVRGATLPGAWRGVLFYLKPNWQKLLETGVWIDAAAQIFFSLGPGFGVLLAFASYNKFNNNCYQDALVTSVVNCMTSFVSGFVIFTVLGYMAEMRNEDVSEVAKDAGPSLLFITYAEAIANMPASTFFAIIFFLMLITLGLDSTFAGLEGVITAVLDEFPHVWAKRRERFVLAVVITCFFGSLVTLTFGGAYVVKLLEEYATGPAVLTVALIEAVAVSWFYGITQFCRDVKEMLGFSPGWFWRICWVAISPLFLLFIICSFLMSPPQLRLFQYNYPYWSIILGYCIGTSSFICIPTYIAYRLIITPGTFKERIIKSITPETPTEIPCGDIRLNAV
Chain of Mu-type opioid receptor (P35372 whole entry): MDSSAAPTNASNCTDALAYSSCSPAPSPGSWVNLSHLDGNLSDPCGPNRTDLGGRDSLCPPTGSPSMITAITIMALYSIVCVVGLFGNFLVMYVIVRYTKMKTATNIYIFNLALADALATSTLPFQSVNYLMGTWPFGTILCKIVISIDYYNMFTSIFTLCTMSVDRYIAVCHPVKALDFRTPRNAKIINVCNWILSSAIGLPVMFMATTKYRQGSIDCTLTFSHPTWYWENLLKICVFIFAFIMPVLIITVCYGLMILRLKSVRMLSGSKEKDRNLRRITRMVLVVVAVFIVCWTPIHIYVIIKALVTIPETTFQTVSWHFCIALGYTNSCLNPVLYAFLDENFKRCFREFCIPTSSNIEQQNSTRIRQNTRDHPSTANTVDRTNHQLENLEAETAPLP

Turning to `O=C1C(O)=C([C@H]2CC[C@H](c3ccc(Cl)cc3)CC2)C(=O)c2ccccc21` [ATOVAQUONE], the AC50 (in assay [1]; at Androgen receptor; on Cannabinoid receptor 1; in assay [2]; in assay [3]; in assay [4]) was > 30 µM in each case. For the same molecule, the AC50 (in assay [5]; in assay [6]; on Vasopressin V1a receptor; at Histamine H3 receptor; in assay [7]) was > 30 µM each time.
Consider `COc1ccc(CCNCC(O)COc2cccc(C)c2)cc1OC` (stereo unspecified) [BEVANTOLOL], for which the AC50 in [1] is > 30 µM; on Cannabinoid receptor 1, > 10 µM; at Mu-type opioid receptor, > 10 µM; on Melanocortin receptor 4 it was > 10 µM; in assay [2], > 10 µM; in [4], > 10 µM. In addition, the results for the AC50 (in assay [6]; at Vasopressin V1a receptor; in assay [7]) were 3 µM, > 10 µM and > 10 µM, respectively.
Turning to `Brc1c(NC2=NCCN2)ccc2nccnc12` [BRIMONIDINE], the AC50 (in assay [8]; in [9]; in assay [5]; on Histamine H3 receptor) was > 30 µM in each case.
`CC(CC1c2ccccc2CCc2ccccc21)CN(C)C` (stereo unspecified) [BUTRIPTYLINE]: the AC50 was 1.4 µM in [1]; > 30 µM in [8]; > 30 µM in assay [2]; > 30 µM in [9]; 0.23 µM in assay [4]; 5 µM in assay [7].
Take `CC(C)(C)NCC(O)COc1cccc2c1CCC(=O)N2` (stereo unspecified) [CARTEOLOL]: the AC50 in assay [1] is > 30 µM; on Mu-type opioid receptor, > 30 µM; at Melanocortin receptor 4, > 10 µM; in assay [2], > 10 µM; in assay [4] it was > 10 µM; in [6], > 10 µM. Moreover, the AC50 (on Vasopressin V1a receptor; in assay [7]) was > 10 µM throughout.
As for `Nc1nc(Cl)nc2c1ncn2[C@H]1C[C@H](O)[C@@H](CO)O1` [CLADRIBINE], the AC50 (in [8]; in assay [9]; in assay [5]; on Histamine H3 receptor) was > 30 µM each time.
In the case of `Clc1ccccc1C(c1ccccc1)(c1ccccc1)n1ccnc1` [CLOTRIMAZOLE], the AC50 at Cannabinoid receptor 1 was > 10 µM; in assay [9] it was > 30 µM; in [3], 15 µM; at Histamine H3 receptor, > 10 µM.
With `COc1ccc2c3c1O[C@H]1[C@@H](O)CC[C@H]4[C@@H](C2)N(C)CC[C@@]341` [DIHYDROCODEINE], the AC50 in assay [1], in [8], in assay [2], in [9], in assay [4] and in assay [7] was > 30 µM each time.
For the molecule `NC(=O)OCC(COC(N)=O)c1ccccc1` [FELBAMATE], the AC50 was > 30 µM in assay [1]; > 10 µM at Cannabinoid receptor 1; > 30 µM on Mu-type opioid receptor; > 10 µM on Melanocortin receptor 4; > 10 µM in assay [2]; > 10 µM in assay [3]. Moreover, the AC50 (in [4]; in assay [6]; on Vasopressin V1a receptor; in assay [7]) was > 10 µM throughout.
On to `Fc1ccc(C(c2ccccc2)(c2ccccc2F)n2ccnc2)cc1` (stereo unspecified) [FLUTRIMAZOLE], for which the AC50 in assay [1] is > 30 µM; on Androgen receptor it was > 30 µM; in [2], > 30 µM; in assay [3], > 30 µM; in assay [4] it was > 30 µM; in assay [5] it was 25 µM. Moreover, the AC50 (in assay [6]; on Vasopressin V1a receptor; at Histamine H3 receptor; in assay [7]) was > 30 µM each time.
`Cc1c(OCC(F)(F)F)ccnc1C[S+]([O-])c1nc2ccccc2[nH]1` (stereo unspecified) [LANSOPRAZOLE]: the AC50 on Mu-type opioid receptor was 4 µM; on Melanocortin receptor 4, > 30 µM; in [3], > 10 µM; in assay [5], 22 µM; on Vasopressin V1a receptor, > 10 µM.
On to `C[C@H]1COc2c(C3(N)CC3)c(F)cc3c(=O)c(C(=O)O)cn1c23` [PAZUFLOXACIN], for which the AC50 was > 30 µM in assay [1]; > 10 µM on Cannabinoid receptor 1; > 30 µM on Mu-type opioid receptor; > 10 µM on Melanocortin receptor 4; > 10 µM in assay [2]; > 10 µM in assay [3]. The AC50 (in assay [4]; in [6]; at Vasopressin V1a receptor; in assay [7]) was > 10 µM throughout.
On to `CC/C(=C(\c1ccccc1)c1ccc(OCCN(C)C)cc1)c1ccccc1` [TAMOXIFEN], for which the AC50 is > 30 µM on Mu-type opioid receptor, 13.6 µM in assay [3] and > 30 µM at Histamine H3 receptor.
On to `C#C[C@]1(O)CC[C@H]2[C@@H]3[C@H](C)CC4=C(CCC(=O)C4)[C@H]3CC[C@@]21C` [TIBOLONE], for which the AC50 (in assay [9]; in [5]; at Histamine H3 receptor) was > 30 µM throughout.
Consider `COc1cccc(C2(O)CCCCC2CN(C)C)c1` (stereo unspecified) [TRAMADOL], for which the AC50 at Cannabinoid receptor 1 is > 10 µM; at Melanocortin receptor 4 it was > 30 µM; in [9], > 30 µM; in assay [3], > 10 µM; in assay [5] it was > 30 µM; at Vasopressin V1a receptor, > 10 µM. Besides, on Histamine H3 receptor, the AC50 is > 10 µM.
`Cc1nnc2n1-c1ccc(Cl)cc1C(c1ccccc1Cl)=NC2` [TRIAZOLAM]: the AC50 in assay [1] was > 30 µM; on Mu-type opioid receptor it was > 30 µM; at Melanocortin receptor 4, > 30 µM; in [2], > 30 µM; in assay [3], > 10 µM; in assay [4], > 10 µM. Besides, the AC50 in assay [5] was > 30 µM; in assay [6], > 30 µM; at Vasopressin V1a receptor, > 30 µM; on Histamine H3 receptor, > 10 µM; in assay [7], > 10 µM.

The AC50 is the concentration giving half of the maximal activity seen. A higher AC50 goes with activity only at high concentration.
